Data reported in patent publication US20250099406A1, “TREATING CANCERS WITH COMBINATIONS OF ACYLFULVENES WITH IBRUTINIB AND/OR BORTEZOMIB” (LANTERN PHARMA INC., priority 2022, published 2025).
“Also recorded” adds a separate entry of the source.

System: JeKo-1 MCL xenograft tumors
Assay: JeKo-1 MCL cell line-derived xenograft mouse study
Type: in vivo, NOD.Scid mice
Details: for tumor volume: at day 17, on bortezomib (1 mg/kg i.p.) or ibrutinib (50 mg/kg p.o.), tumors refractory; for tumor size: day 16, treated by bortezomib (1 mg/kg, i.p.) or ibrutinib (50 mg/kg, p.o.); for tumor response to single-agent treatment: n=8/arm, low dose LP-284 (2 mg/kg i.v.), bortezomib 1 mg/kg i.p. or ibrutinib 50 mg/kg p.o.
Protocol: The JeKo-1 MCL cell line-derived xenograft mice (n=8/arm) were treated with vehicle, LP-284 (2 mg/kg or 4 mg/kg, i.v.), bortezomib (1 mg/kg, i.p.), or ibrutinib (50 mg/kg, p.o.) at days indicated by arrows in the graph. Tumor volumes were measured every 2 to 4 days after treatment initiation.
The two drugs were replaced with one cycle of 4 mg/kg LP-284 or the vehicle (saline).
Each treatment arm was then further split into two sub-arms (n=4/sub-arm), one of which was treated by vehicle whereas the other was treated by 4 mg/kg LP-284 (i.v.), as indicated by arrows in the graph.
Five-week old NOD.Scid mice were procured through Envigo (Item 17003F). Mice were fed Teklad irradiated (sterilized) mouse diet and bedded with Teklad irradiated (sterilized) corncob bedding from Envigo (Indianapolis, IN). Mice were housed in Optimice carousel sterile quarters with filtered air supply in disposable cages from Animal Care Systems, Inc. (Centennial, CO). A total of 1×10^7 cells JeKo-1 cells were injected subcutaneously into the right hind flank of each animal using a […] needle. Vehicle (saline), 4 mg/kg or 2 mg/kg LP-284 was administered as an intravenous injection on day 1, 3, 5, 7, 9, 17, 19, 21, 23, 25. 50 mg/kg ibrutinib was administered orally daily on day 1-16. 1 mg/kg bortezomib administered as an intraperitoneal injection on day 1, 4, 7, 10. The ibrutinib and bortezomib arms were further treated with vehicle or 4 mg/kg LP-284 intravenously on day 17, 19, 21, 23, 25. Tumors were measured in two dimensions using calipers, and volume was calculated using the formula:
TumorVolume (mm^3)=w2×l/2
where w=width and l=length, in mm, of the tumor. For this study the calipers were aligned to the tumor edges (the tumors were not squeezed with the caliper).

SMILES | tumor volume [mm3] | tumor size [mm3] | tumor response to single-agent treatment | tumor response to single-agent treatment (listed as Ibrutinib) | survival versus vehicle (Kaplan-Meier) (bortezomib or ibrutinib pre-treated and refractory xenograft mice switched to 4 mg/kg LP-284 i.v., p<0.001) | tumor response after switching bortezomib- or ibrutinib-refractory mice to LP-284 (one cycle of 4 mg/kg LP-284 i.v. on day 17, 19, 21, 23, 25, tumors ~2000 mm3, n=4/sub-arm, 4 mg/kg) | tumor response to single-agent treatment (listed as Bortezomib)
C=CC(=O)N1CCC[C@@H](n2nc(-c3ccc(Oc4ccccc4)cc3)c3c(N)ncnc32)C1 [ibrutinib, (R)-1-(3-(4-amino-3-(4-phenoxyphenyl)-1H-pyrazolo[3,4-d]pyrimidin-1-yl)piperidin-1-yl) prop-2-en-1-one] | ~2000 | ~2000 | refractory | resulted in refractory cancer after initially controlling cell growth in tumors; also recorded: become refractory and relapse |  |  | 
CC1=C(CN(O)C(N)=O)C2=C(C)C3(CC3)[C@](C)(O)C(=O)C2=C1 [LP-284, (+)-hydroxyureamethyl acylfulvene] |  |  | resulted in refractory cancer after initially controlling cell growth in tumors |  | approximately two times longer; also recorded: prolonged survival | almost completely eliminating; also recorded: near complete tumor regression; also recorded: diminished rapidly | 
CC(C)C[C@H](NC(=O)[C@H](Cc1ccccc1)NC(=O)c1cnccn1)B(O)O [bortezomib, [(1R)-3-methyl-1-({(2S)-3-phenyl-2-[(pyrazin-2-ylcarbonyl)amino]propanoyl}amino)butyl]boronic acid] | ~2000 | ~2000 | refractory |  |  |  | resulted in refractory cancer after initially controlling cell growth in tumors; also recorded: become refractory and relapse
